Values quoted from earlier work in patent US5550110A, “Endothelin Antagonists II” (Warner-Lambert Company, priority 1994, dated 1996).
Ends that are not written are not given here. Peptide text beside a SMILES is read from it.

How the values were obtained:
[1] = test system: acute hypoxia induced pulmonary hypertension; settings: in vivo; cited from earlier work
[2] = test system: ET-1 induced vasoconstriction; settings: i.v.; cited from earlier work
blood pressure [3] = settings: intravenous infusion, stroke prone spontaneous hypertensive rats; cited from earlier work
acute CsA toxicity = settings: rat model; cited from earlier work
[4] = test system: renal vascular resistance; settings: i.v.; cited from earlier work
[5] = test system: ET-1 induced bronchoconstriction and tracheal smooth muscle contraction; settings: allergic sheep; cited from earlier work
[6] = test system: ischemic acute renal failure; settings: i.v., cited from earlier work
[7] = test system: ET-1 induced pressor response; settings: conscious rats; cited from earlier work
endotoxic shock = settings: mouse endotoxic shock; cited from earlier work
[8] = test system: cerebral vasoconstriction after subarachnoid hemorrhage; settings: rats; cited from earlier work
[9] = test system: renal vasoconstriction after renal ischemia; settings: anesthetized rats; cited from earlier work
blood pressure [10] = settings: orally administered; cited from earlier work
[11] = test system: vasoconstriction after subarachnoid hemorrhage; settings: cited from earlier work
ET receptor = settings: cited from earlier work
ET-1 induced arrhythmia = settings: rats; cited from earlier work
[12] = test system: vasoconstriction of the basilar artery; settings: intracisternal, canine subarachnoid hemorrhage model; cited from earlier work
glomerular injury = settings: intraperitoneal, rats; cited from earlier work

For `CC(C)C[C@@H]1NC(=O)[C@@H](C(C)C)NC(=O)[C@@H]2CCCN2C(=O)[C@@H](CC(=O)O)NC(=O)[C@@H](Cc2c[nH]c3ccccc23)NC1=O` [BQ-123] (HELM PEPTIDE1{L.[dW].[dD].P.[dV]}$PEPTIDE1,PEPTIDE1,1:R1-5:R2$$$V2.0), the “prevention of acute hypoxia induced pulmonary hypertension” value [1] is given as “effective in the prevention of acute hypoxia induced pulmonary hypertension”, the “ET-1 induced vasoconstriction in rabbit retinal arteries” value [2] is given as “blocked” and the blood pressure (blood pressure [3]) is given as “decreased blood pressure significantly”. The “acute CsA toxicity” value (acute CsA toxicity) was “suppressed”, the “ET-1 induced renal vascular resistance in rats” value [4] was “blocked” and the “ET-1 induced bronchoconstriction and tracheal smooth muscle contraction” value [5] was “block ET-1 induced bronchoconstriction and tracheal smooth muscle contraction”. For the same compound, the “mitochondrial [Ca2+] accumulation” value ([6]; early phase of ischemic acute renal failure in rats) was “prevents the mitochondrial [Ca^2+ ] accumulation”, the “post-ischemic degeneration of proximal tubular cells” value ([6]; rats) was “protects proximal tubular cells from post-ischemic degeneration” and the “ET-1 induced pressor response” value [7] was “effective in antagonizing the ET-1 induced pressor response”. For the same compound, the survival rate (endotoxic shock) was “significantly increased the survival rate”.
For `COc1cccc(Oc2c(NS(=O)(=O)c3ccc(C(C)(C)C)cc3)ncnc2OCCO)c1` [Ro 46-2005], the “cerebral vasoconstriction after subarachnoid hemorrhage” value [8] is given as “dramatically reduced cerebral vasoconstriction”, the “renal vasoconstriction after renal ischemia” value [9] is given as “protective effect” and the antihypertensive effect (blood pressure [10]) is given as “marked antihypertensive effect with a reasonably long duration”.
In the case of `COc1ccccc1Oc1c(NS(=O)(=O)c2ccc(C(C)(C)C)cc2)nc(-c2ncccn2)nc1OCCO` [Ro 47-0203], the “blood brain barrier passage” value ([11]; inferred from the rabbit subarachnoid hemorrhage model) is listed as “crosses the blood brain barrier” and the reversal of vasoconstriction ([11]; rabbit subarachnoid hemorrhage model) is listed as “effective in a rabbit subarachnoid hemorrhage model in reversing vasoconstriction”.
In the case of “ET[1-20]: ET-1 lacking the C-terminal amino acid Trp-21 (CSCSSLMDKECVYFCHLDII; ends and bridges not checked; cysteine pairing not given here; UniProt P05305 53-72, looked up, fragment)”, the “functional activity relative to ET-1” value (ET receptor) is given as “approximately 1000 fold less”.
For FR 139317, the ET-1 induced arrhythmia (ET-1 induced arrhythmia) is listed as “suppressed”, the “vasoconstriction of the basilar artery” value [12] is listed as “significantly reduced the vasoconstriction of the basilar artery” and the “permeability to proteins, glomerular injury, renal function” value (glomerular injury) is listed as “reduced abnormal permeability to proteins and limited glomerular injury and prevented renal function deterioration”.
